Key:
[1] = target: T1, CXC chemokine receptor 4 (CXCR4) (Homo sapiens, UniProt P61073); experiment: Tag-lite TR-FRET competition with CXCL12-red on HALO-CXCR4 cells; also inhibits […]5 antibody binding on Jurkat cells; assay type: cell-based
[2] = target: T1, CXC chemokine receptor 4 (CXCR4); experiment: cell-based

T1 sequence (P61073 whole entry): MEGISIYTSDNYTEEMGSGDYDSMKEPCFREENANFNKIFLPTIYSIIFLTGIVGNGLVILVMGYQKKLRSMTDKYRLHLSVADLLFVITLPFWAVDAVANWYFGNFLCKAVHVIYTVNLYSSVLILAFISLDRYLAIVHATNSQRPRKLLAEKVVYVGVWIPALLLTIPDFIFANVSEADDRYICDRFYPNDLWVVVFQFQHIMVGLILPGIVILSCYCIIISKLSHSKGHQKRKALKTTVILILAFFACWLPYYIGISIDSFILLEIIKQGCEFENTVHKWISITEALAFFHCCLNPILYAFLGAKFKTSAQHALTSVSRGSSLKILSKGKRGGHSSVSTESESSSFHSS

Ki [2] [µM]	Compound	Ki [1] [µM]
–	NC(=NCc1ccc(Cl)cc1)SCCCc1cnc[nH]1 [CB, clobenpropit]	1.5
~26.5	NCCc1c[nH]cn1 [HA, histamine]	–

Source: paper PMC5309800, “Natural amines inhibit activation of human plasmacytoid dendritic cells through CXCR4 engagement” (Nature Communications, 2017)
